Results: patent US9120756B2, “Substituted phenylureas and phenylamides as vanilloid receptor ligands” (Gruenenthal GmbH, priority 2009, dated 2015)

Experiments:
Type in all cases: cell-based
[1] = biological target: rat-species vanilloid receptor 1 (VR1/TRPV1) (Rattus norvegicus (Rat), UniProt O35433); assay: FLIPR Ca2+ influx assay on rat dorsal root ganglia cells, capsaicin stimulus (method I); conditions: for inhibition at 5 µM: read-out: Ki (rat) Cap: inhibition (as a percentage) @ 5 μM, capsaicin, inhibition determined at 5 μM; for Ki: capsaicin (Cap)
Description: (§1) The agonistic or antagonistic effect of the substances to be tested on the rat-species vanilloid receptor 1 (VR1/TRPV1) can be determined using the following assay. In this assay, the influx of Ca^2+ through the receptor channel is quantified with the aid of a Ca^2+-sensitive dye (type Fluo-4, Molecular Probes Europe BV, Leiden, the Netherlands) in a fluorescent imaging plate reader (FLIPR, Molecular Devices, Sunnyvale, USA).
Complete medium: 50 ml HAMS F12 nutrient mixture (Gibco Invitrogen GmbH, Karlsruhe, Germany) with
10% by volume of FCS (foetal calf serum, Gibco Invitrogen GmbH, Karlsruhe, Germany, heat-inactivated);
2 mM L-glutamine (Sigma, Munich, Germany);
1% by weight of AA solution (antibiotic/antimyotic solution, PAA, Pasching, Austria) and 25 ng/ml NGF medium (2.5 S, Gibco Invitrogen GmbH, Karlsruhe, Germany)
Cell culture plate: Poly-D-lysine-coated, black 96-well plates having a clear base (96-well black/clear plate, BD Biosciences, Heidelberg, Germany) are additionally coated with laminin (Gibco Invitrogen GmbH, Karlsruhe, Germany), the laminin being diluted with PBS (Ca—Mg-free PBS, Gibco Invitrogen GmbH, Karlsruhe, Germany) to a concentration of 100 μg/ml. Aliquots having a laminin concentration of 100 μg/ml are removed and stored at −20° C. The aliquots are diluted with PBS in a ratio of 1:10 to 10 μg/ml of laminin and respectively 50 μL of the solution are pipetted into a recess in the cell culture plate. The cell culture plates are incubated for at least two hours at 37° C., the excess solution is removed by suction and the recesses are each washed twice with PBS. The coated cell culture plates are stored with excess PBS which is not removed until just before the feeding of the cells.
The vertebral column is removed from decapitated rats and placed immediately into cold HBSS buffer (Hank's buffered saline solution, Gibco Invitrogen GmbH, Karlsruhe, Germany), i.e. buffer located in an ice bath, mixed with 1% by volume (percent by volume) of an AA solution (antibiotic/antimyotic solution, PAA, Pasching, Austria). The vertebral column is cut longitudinally and removed together with fasciae from the vertebral canal. Subsequently, the dorsal root ganglia (DRG) are removed and again stored in cold HBSS buffer mixed with 1% by volume of an AA solution. The DRG, from which all blood remnants and spinal nerves have been removed, are transferred in each case to 500 μL of cold type 2 collagenase (PAA, Pasching, Austria) and incubated for 35 minutes at 37° C. After the addition of 2.5% by volume of trypsin (PAA, Pasching, Austria), incubation is continued for 10 minutes at 37° C. After complete incubation, the enzyme solution is carefully pipetted off and 500 μL of complete medium are added to each of the remaining DRG. […] The contents of each Falcon tube are respectively filtered through a 70 μm Falcon filter element and centrifuged for 10 minutes at 1,200 rpm and RT. The resulting pellet is respectively taken up in 250 μL of complete medium and the cell count is determined.
The number of cells in the suspension is set to 3×10^5 per ml and 150 μL of this suspension are in each case introduced into a recess in the cell culture plates coated as described hereinbefore. […] Subsequently, the cells are loaded with 2 μM of Fluo-4 and 0.01% by volume of Pluronic F127 (Molecular Probes Europe BV, Leiden, the Netherlands) in HBSS buffer (Hank's buffered saline solution, Gibco Invitrogen GmbH, Karlsruhe, Germany) for 30 min at 37° C., washed 3 times with HBSS buffer and after further incubation for 15 minutes at RT used for Ca^2+ measurement in a FLIPR assay. The Ca^2+-dependent fluorescence is in this case measured before and after the addition of substances (λex=488 nm, λem=540 nm). Quantification is carried out by measuring the highest fluorescence intensity (FC, fluorescence counts) over time.
The FLIPR protocol consists of 2 substance additions.

hVR1 [2] = biological target: T1, hVR1 (Homo sapiens (Human), UniProt Q8NER1); assay: FLIPR Ca2+ influx assay on CHO K1 cells transfected with the VR1 gene, capsaicin stimulus (method II); set-up: key to Ki (human being) Cap: result in words (NE / AG): AG=agonist; pAG=partial agonist; NE=no effect; conditions: for Ki (human being) Cap: result in words (NE / AG): capsaicin; for Ki: capsaicin (Cap), read-out: Ki (human being) [nM] Cap; for inhibition at 5 µM: CHO-K1, read-out: Ki (human being) Cap column: inhibition (as a percentage) @ 5 μM, capsaicin, inhibition determined at 5 μM
Excerpt: In the process, the Ca^2+ influx is quantified in the FLIPR assay with the aid of a Ca^2+-sensitive dye (type Fluo-4, Molecular Probes Europe BV, Leiden, the Netherlands) in a fluorescent imaging plate reader (FLIPR, Molecular Devices, Sunnyvale, USA), as described hereinafter.
as §1, with “the” for “the rat-species”, “(VR1)” for “(VR1/TRPV1)”, “can also” for “can”, “the” for “the receptor”
Chinese hamster ovary cells (CHO K1 cells, European Collection of Cell Cultures (ECACC) United Kingdom) are stably transfected with the VR1 gene. For functional testing, these cells are plated out on poly-D-lysine-coated black 96-well plates having a clear base (BD Biosciences, Heidelberg, Germany) at a density of 25,000 cells/well. The cells are incubated overnight at 37° C. and 5% CO2 in a culture medium (Ham's F12 nutrient mixture, 10% by volume of FCS (foetal calf serum), 18 μg/ml of L-proline). The next day the cells are incubated with Fluo-4 (Fluo-4 2 μM, 0.01% by volume of Pluronic F127, Molecular Probes in HBSS (Hank's buffered saline solution), Gibco Invitrogen GmbH, Karlsruhe, Germany) for 30 minutes at 37° C. Subsequently, the plates are washed three times with HBSS buffer and after further incubation for 15 minutes at RT used for Ca^2+ measurement in a FLIPR assay. The Ca^2+-dependent fluorescence is measured before and after the addition of the substances to be tested (λex wavelength=488 nm, λem=540 nm). Quantification is carried out by measuring the highest fluorescence intensity (FC, fluorescence counts) over time.
The FLIPR protocol consists of 2 substance additions. First the compounds to be tested (10 μM) are pipetted onto the cells and the Ca^2+ influx is compared with the control (capsaicin 10 μM) (% activation based on the Ca^2+ signal after the addition of 10 μM of capsaicin). After 5 minutes' incubation, 100 nM of capsaicin are applied and the Ca^2+ influx is also determined.
Desensitising agonists and antagonists led to suppression of the Ca^2+ influx.
Starting from the percentage displacement caused by different concentrations of the compounds to be tested of general formula I, IC50 inhibitory concentrations which cause a 50-percent displacement of capsaicin were calculated. Ki values for the test substances were obtained by conversion by means of the Cheng-Prusoff equation (Cheng, Prusoff; Biochem. Pharmacol. 22, 3099-3108, 1973).

hVR1 [3] = biological target: T1, hVR1; assay: FLIPR assay hVR1, after pH stimulus; set-up: key to IC50 (human being) hVR1 pH: result in words (NE / AG): AG=agonist; pAG=partial agonist; NE=no effect; conditions: for inhibition at 10 µM: read-out: IC50 (human being) hVR1 pH: inhibition (as a percentage) @ 10 μM, inhibition determined at 10 μM
Description: In this assay, the influx of Ca^2+ through the channel is quantified with the aid of a Ca^2+-sensitive dye (type Fluo-4, Molecular Probes Europe BV, Leiden, the Netherlands) in a fluorescent imaging plate reader (FLIPR, Molecular Devices, Sunnyvale, USA). Chinese hamster ovary cells (CHO K1 cells, European Collection of Cell Cultures (ECACC) United Kingdom) are stably transfected with the VR1 gene. For functional testing, these cells are plated out on poly-D-lysine-coated black 96-well plates having a clear base (BD Biosciences, Heidelberg, Germany) at a density of 25,000 cells/well. […] Subsequently, the plates are washed three times with HBSS buffer and after further incubation for 15 minutes at RT used for Ca^2+ measurement in a FLIPR assay. […] Quantification is carried out by measuring the highest fluorescence intensity (FC, fluorescence counts) over time. The FLIPR protocol consists of 2 substance additions. […] Desensitising agonists and antagonists led to suppression of the Ca^2+ influx. […] Ki values for the test substances were obtained by conversion by means of the Cheng-Prusoff equation (Cheng, Prusoff; Biochem. Pharmacol. 22, 3099-3108, 1973).

T1 sequence (Q8NER1 whole entry): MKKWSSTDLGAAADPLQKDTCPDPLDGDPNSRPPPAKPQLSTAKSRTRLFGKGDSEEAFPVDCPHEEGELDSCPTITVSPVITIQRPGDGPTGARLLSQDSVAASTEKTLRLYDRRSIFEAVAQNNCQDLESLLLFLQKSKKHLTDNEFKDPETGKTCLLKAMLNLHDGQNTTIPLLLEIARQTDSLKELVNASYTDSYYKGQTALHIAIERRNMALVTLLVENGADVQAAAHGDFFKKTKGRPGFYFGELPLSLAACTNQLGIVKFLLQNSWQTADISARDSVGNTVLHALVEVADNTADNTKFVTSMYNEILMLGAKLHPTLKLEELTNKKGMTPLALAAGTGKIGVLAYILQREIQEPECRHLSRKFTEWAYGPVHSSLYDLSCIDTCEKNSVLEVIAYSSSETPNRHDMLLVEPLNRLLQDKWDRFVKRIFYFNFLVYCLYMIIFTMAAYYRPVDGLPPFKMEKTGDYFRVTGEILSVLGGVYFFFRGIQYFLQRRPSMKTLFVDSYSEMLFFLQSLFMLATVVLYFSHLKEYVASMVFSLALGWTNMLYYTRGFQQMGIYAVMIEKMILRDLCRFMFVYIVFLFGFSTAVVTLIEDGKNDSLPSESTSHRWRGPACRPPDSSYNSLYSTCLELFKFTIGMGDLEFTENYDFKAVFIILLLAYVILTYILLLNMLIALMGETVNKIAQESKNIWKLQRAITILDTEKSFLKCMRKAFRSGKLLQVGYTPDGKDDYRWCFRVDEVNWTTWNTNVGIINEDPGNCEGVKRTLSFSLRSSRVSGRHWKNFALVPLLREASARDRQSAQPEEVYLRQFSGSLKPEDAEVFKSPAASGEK
Sequence of rat-species vanilloid receptor 1 (VR1/TRPV1) (O35433 whole entry): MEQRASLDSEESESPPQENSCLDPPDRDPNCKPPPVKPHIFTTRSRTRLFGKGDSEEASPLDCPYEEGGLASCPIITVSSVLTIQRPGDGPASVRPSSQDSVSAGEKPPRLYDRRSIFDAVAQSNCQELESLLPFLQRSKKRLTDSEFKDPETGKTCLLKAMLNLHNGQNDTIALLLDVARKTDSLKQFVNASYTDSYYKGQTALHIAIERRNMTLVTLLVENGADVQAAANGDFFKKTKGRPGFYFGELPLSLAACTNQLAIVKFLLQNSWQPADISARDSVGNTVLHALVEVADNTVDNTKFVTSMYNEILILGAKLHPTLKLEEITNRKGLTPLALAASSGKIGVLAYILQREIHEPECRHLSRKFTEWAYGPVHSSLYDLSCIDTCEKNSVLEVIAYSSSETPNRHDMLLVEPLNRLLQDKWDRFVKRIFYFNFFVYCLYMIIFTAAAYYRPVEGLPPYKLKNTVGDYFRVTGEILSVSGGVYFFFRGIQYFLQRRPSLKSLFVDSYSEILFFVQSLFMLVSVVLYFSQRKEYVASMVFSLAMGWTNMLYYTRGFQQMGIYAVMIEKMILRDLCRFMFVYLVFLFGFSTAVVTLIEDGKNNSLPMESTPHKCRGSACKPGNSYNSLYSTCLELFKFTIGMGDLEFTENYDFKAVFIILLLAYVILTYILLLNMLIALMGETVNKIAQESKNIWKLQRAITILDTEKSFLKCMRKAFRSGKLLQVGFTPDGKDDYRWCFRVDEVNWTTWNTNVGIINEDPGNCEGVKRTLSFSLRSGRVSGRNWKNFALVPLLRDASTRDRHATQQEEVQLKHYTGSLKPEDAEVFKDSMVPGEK

## C[C@H](C(=O)NCc1cc(C(C)(C)C)n[nH]1)c1ccc(NS(C)(=O)=O)c(F)c1 [Example 2, (S)-N-((3-tert-butyl-1H-pyrazol-5-yl)methyl)-2-(3-fluoro-4-(methylsulphonamido)phenyl)propanamide]
[1]
  inhibition at 5 µM: 25%
hVR1 [2]
  Ki (human being) Cap: result in words (NE / AG): NE
hVR1 [3]
  IC50 (human being) hVR1 pH: result in words (NE / AG): NE

## CC(C(=O)NCc1cc(C(C)(C)C)nn1C1CCCCC1)c1ccc(NS(C)(=O)=O)c(F)c1 (stereo not shown) [Example 7, N-((3-tert-butyl-1-cyclohexyl-1H-pyrazol-5-yl)methyl)-2-(3-fluoro-4-(methylsulphonamido)phenyl)propanamide]
[1]
  Ki: 0.35 nM
hVR1 [2]
  Ki: 21.6 nM
hVR1 [3]
  IC50 (human being) hVR1 pH: result in words (NE / AG): NE

## C[C@H](C(=O)NCc1cc(C(C)(C)C)nn1C)c1ccc(NS(C)(=O)=O)c(F)c1 [Example 4, (S)-N-((3-tert-butyl-1-methyl-1H-pyrazol-5-yl)methyl)-2-(3-fluoro-4-(methylsulphonamido)phenyl)propanamide]
[1]
  inhibition at 5 µM: 20%
hVR1 [2]
  inhibition at 5 µM: 9%
hVR1 [3]
  IC50 (human being) hVR1 pH: result in words (NE / AG): NE

## CCCCCCn1nc(C(C)(C)C)cc1CNC(=O)[C@@H](C)c1ccc(NS(C)(=O)=O)c(F)c1 [Example 6, (S)-N-((3-tert-butyl-1-hexyl-1H-pyrazol-5-yl)methyl)-2-(3-fluoro-4-(methylsulphonamido)phenyl)propanamide]
[1]
  Ki: 14.5 nM
hVR1 [2]
  Ki: 27.7 nM
hVR1 [3]
  inhibition at 10 µM: 13%

## Cc1ccc(-n2nc(C(C)(C)C)cc2CNC(=O)C(C)c2ccc(NS(C)(=O)=O)c(F)c2)cc1 (stereo not shown) [Example 12, N-((3-tert-butyl-1-p-tolyl-1H-pyrazol-5-yl)methyl)-2-(3-fluoro-4-(methylsulphonamido)phenyl)propanamide]
hVR1 [3]
  inhibition at 10 µM: 40%

## CC(C(=O)NCc1cc(C(C)(C)C)nn1-c1cccc(Cl)c1)c1ccc(N2CCCS2(=O)=O)c(F)c1 (stereo not shown) [Example 55, N-((3-tert-butyl-1-(3-chlorophenyl)-1H-pyrazol-5-yl)methyl)-2-[4-(1,1-dioxidoisothiazolidin-2-yl)-3-fluorophenyl]propanamide]
hVR1 [2]
  Ki: 114 nM
hVR1 [3]
  IC50 (human being) hVR1 pH: result in words (NE / AG): NE

## C[C@H](C(=O)NCc1cc(C(C)(C)C)nn1-c1cccc(Cl)c1)c1ccc(NS(C)(=O)=O)c(F)c1 [Example 17, (S)-N-((3-tert-butyl-1-(3-chlorophenyl)-1H-pyrazol-5-yl)methyl)-2-(3-fluoro-4-(methylsulphonamido)phenyl)propanamide]
hVR1 [3]
  inhibition at 10 µM: 37%

## CC(C(=O)NCc1cc(C(C)(C)C)n[nH]1)c1ccc(NS(C)(=O)=O)c(F)c1 (stereo not shown) [Example 1, N-((3-tert-butyl-1H-pyrazol-5-yl)methyl)-2-(3-fluoro-4-(methylsulphonamido)phenyl)propanamide]
[1]
  inhibition at 5 µM: 25%
hVR1 [2]
  Ki (human being) Cap: result in words (NE / AG): NE
hVR1 [3]
  IC50 (human being) hVR1 pH: result in words (NE / AG): NE

## CC(C(=O)NCc1cc(C(C)(C)C)nn1-c1ccc(C(C)(C)C)cc1)c1ccc(NS(C)(=O)=O)c(F)c1 (stereo not shown) [Example 13, N-((3-tert-butyl-1-(4-tert-butylphenyl)-1H-pyrazol-5-yl)methyl)-2-(3-fluoro-4-(methylsulphonamido)phenyl)propanamide]
[1]
  Ki: 25.9 nM
hVR1 [2]
  Ki: 75.2 nM

## COc1c(F)cc(C(C)C(=O)NCc2cc(C(F)(F)F)nn2-c2cccc(Cl)c2)cc1F (stereo not shown) [Example 47, N-((1-(3-chlorophenyl)-3-(trifluoromethyl)-1H-pyrazol-5-yl)methyl)-2-(3,5-difluoro-4-methoxyphenyl)propanamide]
hVR1 [2]
  Ki: 17 nM

## CC(C(=O)NCc1cc(C(F)(F)F)nn1-c1cccc(Cl)c1)c1ccc(C(=O)Nc2ccc(C(F)(F)F)cc2)cc1 (stereo not shown) [Example 41, 4-(1-((1-(3-chlorophenyl)-3-(trifluoromethyl)-1H-pyrazol-5-yl)methylamino)-1-oxopropan-2-yl)-N-(4-(trifluoromethyl)phenyl)benzamide]
hVR1 [2]
  Ki: 85 nM

## CCCCCn1nc(C(F)(F)F)cc1CNC(=O)Cc1cccc(F)c1 [Example 131, 2-(3-fluorophenyl)-N-((1-pentyl-3-(trifluoromethyl)-1H-pyrazol-5-yl)methyl)acetamide]
hVR1 [2]
  inhibition at 5 µM: 58%

## O=C(Cc1cc(F)c(O)c(F)c1)NCc1cc(C(F)(F)F)nn1-c1cccc(Cl)c1 [Example 147, N-((1-(3-chlorophenyl)-3-(trifluoromethyl)-1H-pyrazol-5-yl)methyl)-2-(3,5-difluoro-4-hydroxyphenyl)acetamide]
hVR1 [2]
  Ki: 26 nM
